Reference: patent publication US5843959A, “Methods and bicyclic polyamine compositions for the treatment of inflammation” (University of Florida Research Foundation, Inc., priority 1997, dated 1998)

Columns and labels:
[1] = test system: BALB/c splenocytes stimulated with Con A; test: Mitogen response to Con A (T cell proliferation); format: cell-based, mouse (BALB/c)
Experimental: (§1) This study examined the potential immunomodulatory activities of PIP[4,4,4] on mouse spleen cells using in vitro techniques. The effect of the compound on the ability of murine splenocytes to respond to the […] mitogen concanavalin A (Con A) and the B cell mitogen lipopolysaccharide (LPS) was studied. […] In addition, the compound was tested for its effect on the mixed lymphocyte response (MLR). The MLR is an in vitro manifestation of cell-mediated immunity in which T cells respond to differences in major histocompatibility complex (MHC) class II molecules (Ia antigens) expressed on foreign or allogeneic leukocytes (primarily B cells and […]/monocytes).
(§2) a. Preparation of cells--Under sterile conditions, spleens were removed from BALB/c (H-2^d) and CBA/J (H-2^k) mice. BALB/c splenocytes were used as responder cells in the mitogen assays and the MLR assays, whereas CBA/J cells were used as stimulator cells in the MLR assays. […] Cells were exposed to various concentrations of the test compounds for the entire culture period. The initial dilutions in medium were filter sterilized to maintain aseptic conditions.
b. Mitogen assays--Con A and LPS were obtained from Sigma Chemical Co. (St. Louis, Mo., U.S.A.). 2×10^5 BALB/c splenocytes were added per well. […] Triplicate wells were set up in 96-well flat-bottom microtiter plates for all treated cultures and positive controls (100% of control) were performed in replicates of nine wells. Plates were incubated at 37° C. in a humidified CO2 incubator for 3 days, pulsed with 1 μCi ^3 H-TdR/well for 6-16 hours, harvested and counted in a liquid scintillation counter. All data were processed using Lotus 1-2-3 and SigmaPlot software.

[2] = test system: BALB/c responder splenocytes with CBA/J stimulator cells; test: Mixed lymphocyte response (MLR); format: cell-based, mouse (BALB/c
Experimental: as §1, §2
c. […] Thus, a BALB/c (2×10^5 cells/well) anti-CBA/J (8×10^5 cells/well) MLR combination was used in these studies. CBA/J spleen cells were irradiated with 2,000 R to prevent them from responding to BALB/c MHC antigens. Triplicate wells were set up in 96-well flat-bottom microtiter plates for all treated cultures and positive controls (100% of control) were performed in replicates of nine wells. Plates were incubated at 37° C. in a humidified CO2 incubator for 5 days, pulsed with 1 μCI […]/well for 6-16 hours, harvested and counted in a liquid scintillation counter. All data were processed using Lotus 1-2-3 and SigmaPlot software.

## C(CCNCC1CCNCC1)CNCC1CCNCC1 [PIP[4,4,4], N,N'-Bis(4-piperidinylmethyl)-1,4-butanediamine]
[1]
  Effect on Con A response (in words): no inhibitory effect on the Con A response
[1]; Con A 3 μg/ml, drug 0.010 μm
  Proliferative response (CPM), Mean ± SD: 343389 ± 21927 CPM
[1]; Con A 3 μg/ml, drug 0.100 μm
  Proliferative response (CPM), Mean ± SD: 333419 ± 31211 CPM
[1]; Con A 3 μg/ml, drug 1.000 μm
  Proliferative response (CPM), Mean ± SD: 340397 ± 25586 CPM
[1]; Con A 3 μg/ml, drug 10.000 μm
  Proliferative response (CPM), Mean ± SD: 365771 ± 2876 CPM
[1]; Con A 3 μg/ml, drug 100.000 μm
  Proliferative response (CPM), Mean ± SD: 313504 ± 279 CPM
[1]; Con A 3 μg/ml, drug 1000.000 μm
  Proliferative response (CPM), Mean ± SD: 273418 ± 14954 CPM
[1]; Mus musculus, Splenocyte, 72 h, Con A 3 μg/ml, drug 0.010 μm, read-out: % Control
  activity at 0.01 µM: 173%
[1]; Mus musculus, Splenocyte, 72 h, Con A 3 μg/ml, drug 0.100 μm, read-out: % Control
  activity at 0.1 µM: 168%
[1]; Mus musculus, Splenocyte, 72 h, Con A 3 μg/ml, drug 1.000 μm, read-out: % Control
  activity at 1 µM: 172%
[1]; Mus musculus, Splenocyte, 72 h, Con A 3 μg/ml, drug 10.000 μm, read-out: % Control
  activity at 10 µM: 185%
[1]; Mus musculus, Splenocyte, 72 h, Con A 3 μg/ml, drug 100.000 μm, read-out: % Control
  activity at 100 µM: 158%
[1]; Mus musculus, Splenocyte, 72 h, Con A 3 μg/ml, drug 1000.000 μm, read-out: % Control
  activity at 1000 µM: 138%
[2]
  Effect on MLR (in words): MLR was inhibited by PIP[4,4,4] primarily at 10 and 100 μm
[2]; MLR, 5 days, drug 0.010 μm
  Proliferative response (CPM), Mean ± SD: 330859 ± 11640 CPM
[2]; MLR, 5 days, drug 0.100 μm
  Proliferative response (CPM), Mean ± SD: 411919 ± 6106 CPM
[2]; MLR, 5 days, drug 1.000 μm
  Proliferative response (CPM), Mean ± SD: 54594 ± 11873 CPM
[2]; MLR, 5 days, drug 10.000 μm
  Proliferative response (CPM), Mean ± SD: 568531 ± 6200 CPM
[2]; MLR, 5 days, drug 100.000 μm
  Proliferative response (CPM), Mean ± SD: 29717 ± 3146 CPM
[2]; MLR, 5 days, drug 1000.000 μm
  Proliferative response (CPM), Mean ± SD: 22583 ± 2490 CPM
[2]; Mus musculus, Splenocyte, 120 h, MLR, 5 days, drug 0.010 μm, read-out: % Control
  activity at 0.01 µM: 79%
[2]; Mus musculus, Splenocyte, 120 h, MLR, 5 days, drug 0.100 μm, read-out: % Control
  activity at 0.1 µM: 99%
[2]; Mus musculus, Splenocyte, 120 h, MLR, 5 days, drug 1.000 μm, read-out: % Control
  activity at 1 µM: 131%
[2]; Mus musculus, Splenocyte, 120 h, MLR, 5 days, drug 10.000 μm, read-out: % Control
  activity at 10 µM: 136%
[2]; Mus musculus, Splenocyte, 120 h, MLR, 5 days, drug 100.000 μm, read-out: % Control
  activity at 100 µM: 71%
[2]; Mus musculus, Splenocyte, 120 h, MLR, 5 days, drug 1000.000 μm, read-out: % Control
  activity at 1000 µM: 54%
